PMC12928571, “Idler Compounds: A Simple Protocol for Openly Sharing Fridge Contents for Cross-Screening” (Journal of Medicinal Chemistry, 2026)

Legend:
[1] = tested on: E. coli (NCTC 12923) +PMBN; experiment: Activity against E. coli in the presence of PMBN (30 μg/mL); type: cell-based, Escherichia coli; conditions: 100 μM, active when inhibition >80%
[2] = Solubility by forward light-scatter (NEPHELOstar Plus); type: physicochemical; conditions: 1% DMSO in DPBS pH 7.1, 37 °C; for solubility (in words): 2 h
[3] = tested on: Huh7 cells; conditions: reported after plate MHT-0001 was prepared, reference not printed at the place; cited from earlier work
[4] = tested on: P. falciparum; conditions: from originating P. falciparum / Open Source Malaria projects; cited from earlier work
[5] = tested on: Mycobacterium avium (ATCC15796); experiment: Activity against Mycobacterium avium, luciferase reporter strain luminescence; conditions: 10 μM; active when inhibition >50%
[6] = tested on: C. albicans (NCPF 3281); experiment: Activity against C. albicans, microbroth growth inhibition (OD530); type: cell-based, Candida albicans; conditions: 100 μM; active when inhibition >80%
[7] = tested on: chikungunya virus nsp2 helicase; conditions: from originating chikungunya virus nsp2 helicase project; cited from earlier work
[8] = tested on: A. baumannii (ATCC 17978) +PMBN; experiment: Activity against A. baumannii in the presence of PMBN (30 μg/mL); type: cell-based, Acinetobacter baumannii; conditions: 100 μM, active when inhibition >80%
[9] = tested on: S. aureus (ATCC 9144); experiment: Activity against S. aureus, microbroth growth inhibition (OD600); type: cell-based, Staphylococcus aureus; conditions: 100 μM; active when inhibition >80%
[10] = tested on: Mycobacterium abscessus (NCTC 14045); experiment: Activity against Mycobacterium abscessus, luciferase reporter strain luminescence; conditions: 10 μM; active when inhibition >50%
[11] = tested on: Gram-negative strain; experiment: Activity on a Gram-negative strain without PMBN (strain not given); type: cell-based; conditions: 100 μM, strain not named
[12] = tested on: SARS-CoV-2 nonstructural protein 12 (Nsp12); conditions: from originating SARS-CoV-2 Nsp12 project; cited from earlier work
[13] = tested on: DENV serotype 2; conditions: from originating DENV RdRp project; reference not printed at the place; cited from earlier work

## CC1(C)C2CCC1(C)C(OCC(O)CNC1CCCCC1)C2 (centres unmarked) [RA-0020564]
[1]; listed as well G6
  activity on E. coli +PMBN (in words): narrow–spectrum activity
[2]; DPBS with 1% DMSO, aqueous buffer, kinetic from dmso stock
  solubility at 2 h: > 100 µM
[3]
  CC50: 14.5 µM

## Nc1ncnc2cc(-c3cccc(S(N)(=O)=O)c3)sc12 [YNW5-2]
[1]
  activity on E. coli +PMBN (in words): narrow–spectrum activity
[4]
  antiplasmodial activity / inhibition against P. falciparum (in words): potent and selective inhibition
[5]
  activity on M. avium (in words): showed activity

## COc1ccc(-c2ccc(CNc3ccnc(S(=O)(=O)F)c3)s2)cc1 [RA-0020649-01]
[6]
  activity on C. albicans (in words): selective activity

## Oc1ccc(CN2CCN(c3ccccc3F)CC2)c2cccnc12 [RA-0020681]
[6]
  activity on C. albicans (in words): selective activity
[2]
  solubility (in words): poor
[7]
  unwinding or ATPase inhibitory effect (in words): no unwinding or ATPase inhibitory effect

## O=C(Nc1ccccc1)C(Cl)C(=O)c1ccccc1 (centres unmarked) [RA-0020661-01]
[8]
  activity on A. baumannii +PMBN (in words): narrow–spectrum activity

## O=S(=O)(Nc1ccc(Oc2ccccc2)cc1)c1cccc(C(F)(F)F)c1 [EC055-1]
[1]
  activity on E. coli +PMBN (in words): narrow–spectrum activity

## COc1ccc2c(c1)nc(-c1c[nH]c3cc(N4CCOCC4)ccc13)c1[nH]ccc12 [WEL2.76]
[9]
  activity on S. aureus (in words): strong activity
[8]
  activity on A. baumannii +PMBN (in words): strong activity
[1]
  activity on E. coli +PMBN (in words): strong activity
[6]
  activity on C. albicans (in words): no noticeable effect
[2]
  solubility (in words): poor
[4]
  antiplasmodial activity / inhibition against P. falciparum (in words): promising antiplasmodial activity
[5]
  activity on M. avium (in words): no noticeable effect
[10]
  activity on M. abscessus (in words): no noticeable effect

## COc1ccc2c(c1)nc(-c1c[nH]c3ccc(N4CCSCC4)cc13)c1[nH]ccc12 [WEL2.92a]
[11]
  activity on a Gram-negative strain (in words): showed activity

## CC1=CC(=O)C=C(C)C1=NOS(=O)(=O)c1ccc(Cl)cc1 [RA-0001351]
[2]
  solubility (in words): good solubility
[12]
  potency on Nsp12 (in words): potent

## COc1cc2nc(Nc3cc(C)[nH]n3)nc(Nc3cc(C)[nH]n3)c2cc1OC [MA20]
[6]
  activity on C. albicans (in words): selective activity

## Cc1ccc(C)c(N2CCN(C(=O)C3CCN(c4ncnc5c4sc4ncccc45)CC3)CC2)c1 [RA-0020572]
[13]
  antiviral activity on DENV serotype 2: 2.7 µM

## CC(C)c1cc(Nc2nc(N[C@@H](CO)C3CCCCC3)nc3[nH]ncc23)n[nH]1 [WYH-9]
[1]
  activity on E. coli +PMBN (in words): narrow–spectrum activity
